Patent publication US11981658B2, “Substituted aminopyridine compounds as EGFR inhibitors” (YUHAN CORPORATION, priority 2021, dated 2024)
Where two headings read alike, the source gives them in different places.

Key:
[1] = molecular target: EGFR wildtype (WT) (Homo sapiens, UniProt P00533); experiment: Biochemical EGFR kinase inhibition assay (Lance Ultra TR-FRET), wildtype
Method in brief: (§1)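 Kinase activity is measured by TR-FRET phosphopeptide detection. Compounds span 0.003 μM to 10 μM; the 1 h reaction at room temperature is quenched with EDTA, then labelled antibody (2 nM) is incubated 60 min before reading.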

[2] = molecular target: EGFR L858R/C797S (Homo sapiens, UniProt P00533, C797S/L858R); experiment: Biochemical EGFR kinase inhibition assay (Lance Ultra TR-FRET), double mutant L858R/C797S
Sequence of EGFR L858R/C797S (P00533 25-1210 C797S/L858R): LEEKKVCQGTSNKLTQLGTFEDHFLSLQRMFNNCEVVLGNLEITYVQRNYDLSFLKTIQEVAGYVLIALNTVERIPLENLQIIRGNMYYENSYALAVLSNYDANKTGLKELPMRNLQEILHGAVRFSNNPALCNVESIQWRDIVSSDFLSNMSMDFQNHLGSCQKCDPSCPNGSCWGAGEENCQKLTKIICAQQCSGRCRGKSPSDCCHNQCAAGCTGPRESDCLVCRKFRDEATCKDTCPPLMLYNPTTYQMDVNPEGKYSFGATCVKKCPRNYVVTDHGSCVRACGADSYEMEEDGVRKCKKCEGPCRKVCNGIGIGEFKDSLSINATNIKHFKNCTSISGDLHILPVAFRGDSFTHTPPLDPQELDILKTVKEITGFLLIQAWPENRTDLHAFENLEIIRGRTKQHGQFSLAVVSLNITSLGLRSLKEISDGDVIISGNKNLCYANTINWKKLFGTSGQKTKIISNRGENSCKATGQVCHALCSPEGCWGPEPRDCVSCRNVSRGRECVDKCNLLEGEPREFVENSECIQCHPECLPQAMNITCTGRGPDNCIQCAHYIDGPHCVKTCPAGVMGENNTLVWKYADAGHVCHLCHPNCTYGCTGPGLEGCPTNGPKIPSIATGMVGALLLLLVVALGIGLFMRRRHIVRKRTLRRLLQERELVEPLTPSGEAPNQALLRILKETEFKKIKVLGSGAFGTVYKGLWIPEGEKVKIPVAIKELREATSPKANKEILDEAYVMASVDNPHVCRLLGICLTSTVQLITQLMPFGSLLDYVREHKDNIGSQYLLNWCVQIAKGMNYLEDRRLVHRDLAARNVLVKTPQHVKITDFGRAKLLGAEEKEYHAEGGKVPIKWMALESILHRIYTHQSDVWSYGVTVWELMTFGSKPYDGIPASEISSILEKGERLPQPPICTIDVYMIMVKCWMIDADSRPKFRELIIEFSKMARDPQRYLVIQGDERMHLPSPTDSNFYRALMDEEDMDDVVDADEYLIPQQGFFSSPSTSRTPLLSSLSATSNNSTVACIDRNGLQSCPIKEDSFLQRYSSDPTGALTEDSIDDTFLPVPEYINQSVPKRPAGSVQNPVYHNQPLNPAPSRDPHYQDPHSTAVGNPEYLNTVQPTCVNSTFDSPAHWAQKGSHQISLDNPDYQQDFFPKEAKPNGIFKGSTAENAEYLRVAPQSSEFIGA
Method in brief: as §1

[3] = molecular target: EGFR L858R/T790M/C797S (Homo sapiens, UniProt P00533, C797S/L858R/T790M); experiment: Biochemical EGFR kinase inhibition assay (Lance Ultra TR-FRET), triple mutant L858R/T790M/C797S
Method in brief: as §1

[4] = molecular target: EGFR Del19/C797S (Homo sapiens, UniProt P00533, C797S/DEL746-750); experiment: Biochemical EGFR kinase inhibition assay (Lance Ultra TR-FRET), double mutant del19/C797S
Sequence of EGFR Del19/C797S (P00533 with tags, fused parts or gaps DEL746-750/C797S): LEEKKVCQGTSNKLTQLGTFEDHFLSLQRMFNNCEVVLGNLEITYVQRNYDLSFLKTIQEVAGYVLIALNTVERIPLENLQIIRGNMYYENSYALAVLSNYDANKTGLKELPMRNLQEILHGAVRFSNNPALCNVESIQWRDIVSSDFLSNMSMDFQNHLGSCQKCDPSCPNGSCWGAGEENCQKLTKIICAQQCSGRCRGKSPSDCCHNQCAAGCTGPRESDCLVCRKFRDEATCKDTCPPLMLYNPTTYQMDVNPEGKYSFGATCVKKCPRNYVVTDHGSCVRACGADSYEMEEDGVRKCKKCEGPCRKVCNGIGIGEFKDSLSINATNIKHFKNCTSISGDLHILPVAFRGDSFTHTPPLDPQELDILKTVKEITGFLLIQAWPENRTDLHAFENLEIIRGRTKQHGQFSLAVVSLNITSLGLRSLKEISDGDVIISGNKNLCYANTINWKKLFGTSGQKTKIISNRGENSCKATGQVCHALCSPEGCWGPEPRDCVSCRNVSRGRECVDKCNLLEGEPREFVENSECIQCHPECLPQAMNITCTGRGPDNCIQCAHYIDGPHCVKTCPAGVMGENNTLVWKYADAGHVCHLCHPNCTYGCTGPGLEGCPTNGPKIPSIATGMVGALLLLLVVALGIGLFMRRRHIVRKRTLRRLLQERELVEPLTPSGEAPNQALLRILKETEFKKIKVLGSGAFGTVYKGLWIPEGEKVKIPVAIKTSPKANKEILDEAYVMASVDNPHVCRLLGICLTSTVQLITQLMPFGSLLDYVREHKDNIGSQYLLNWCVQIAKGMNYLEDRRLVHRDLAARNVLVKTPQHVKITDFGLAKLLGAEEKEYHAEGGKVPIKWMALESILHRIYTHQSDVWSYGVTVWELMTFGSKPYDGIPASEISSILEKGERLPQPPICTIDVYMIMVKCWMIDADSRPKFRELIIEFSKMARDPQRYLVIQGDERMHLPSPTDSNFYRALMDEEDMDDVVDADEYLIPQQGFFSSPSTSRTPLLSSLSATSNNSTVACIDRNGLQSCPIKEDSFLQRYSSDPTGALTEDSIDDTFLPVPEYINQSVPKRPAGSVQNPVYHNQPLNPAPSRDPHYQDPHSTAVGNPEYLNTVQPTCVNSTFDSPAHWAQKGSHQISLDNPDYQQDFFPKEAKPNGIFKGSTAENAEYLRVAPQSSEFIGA
Method in brief: as §1

[5] = molecular target: EGFR Del19/T790M/C797S (Homo sapiens, UniProt P00533, C797S/DEL746-750/T790M); experiment: Biochemical EGFR kinase inhibition assay (Lance Ultra TR-FRET), triple mutant del19/T790M/C797S
Sequence of EGFR Del19/T790M/C797S (P00533 with tags, fused parts or gaps DEL746-750/T790M/C797S): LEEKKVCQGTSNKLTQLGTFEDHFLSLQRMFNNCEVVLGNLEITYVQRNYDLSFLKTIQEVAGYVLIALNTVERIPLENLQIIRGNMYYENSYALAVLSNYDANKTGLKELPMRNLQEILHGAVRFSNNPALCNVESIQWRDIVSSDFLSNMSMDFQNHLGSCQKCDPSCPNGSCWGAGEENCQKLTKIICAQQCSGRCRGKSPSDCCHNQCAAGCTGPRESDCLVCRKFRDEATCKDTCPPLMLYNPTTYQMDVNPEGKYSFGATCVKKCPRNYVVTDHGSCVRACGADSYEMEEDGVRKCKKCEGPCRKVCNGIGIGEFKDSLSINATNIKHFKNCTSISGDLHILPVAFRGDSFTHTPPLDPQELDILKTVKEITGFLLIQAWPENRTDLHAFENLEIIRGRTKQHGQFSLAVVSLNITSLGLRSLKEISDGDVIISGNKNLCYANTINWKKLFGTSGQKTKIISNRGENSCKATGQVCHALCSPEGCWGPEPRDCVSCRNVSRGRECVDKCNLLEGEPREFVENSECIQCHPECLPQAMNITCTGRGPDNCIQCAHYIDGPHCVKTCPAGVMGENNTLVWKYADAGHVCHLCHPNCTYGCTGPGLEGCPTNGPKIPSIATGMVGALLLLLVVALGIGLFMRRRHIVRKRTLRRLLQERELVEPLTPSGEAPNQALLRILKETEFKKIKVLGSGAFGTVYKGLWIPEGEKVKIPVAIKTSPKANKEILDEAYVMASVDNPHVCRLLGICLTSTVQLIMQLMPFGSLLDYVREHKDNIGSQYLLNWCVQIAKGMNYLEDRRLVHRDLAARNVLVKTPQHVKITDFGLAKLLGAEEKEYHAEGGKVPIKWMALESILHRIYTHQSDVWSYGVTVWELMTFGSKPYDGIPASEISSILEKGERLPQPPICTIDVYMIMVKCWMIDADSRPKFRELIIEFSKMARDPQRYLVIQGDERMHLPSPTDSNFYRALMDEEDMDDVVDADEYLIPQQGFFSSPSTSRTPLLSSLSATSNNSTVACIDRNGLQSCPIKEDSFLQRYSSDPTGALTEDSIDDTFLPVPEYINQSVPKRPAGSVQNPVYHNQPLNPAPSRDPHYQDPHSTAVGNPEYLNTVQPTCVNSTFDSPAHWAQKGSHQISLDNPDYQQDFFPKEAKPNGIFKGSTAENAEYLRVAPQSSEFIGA
Method in brief: as §1

[6] = Km ATP, read-out: IC50 WT (nM), Km ATP
[7] = IC50 L858R/C797S (nM), 100 μM ATP
[8] = Km ATP, read-out: IC50 L858R/C797S (nM), Km ATP
[9] = IC50 L858R/T790M/C797S (nM), 100 μM ATP
[10] = Km ATP, read-out: IC50 L858R/T790M/C797S (nM), Km ATP
[11] = IC50 Del19/C797S (nM), 100 μM ATP
[12] = Km ATP, read-out: IC50 Del19/C797S (nM), Km ATP
[13] = IC50 Del19/T790M/C797S (nM), 100 μM ATP
[14] = Km ATP, read-out: IC50 Del19/T790M/C797S (nM), Km ATP

Sequence of EGFR wildtype (WT) (P00533 25-1210): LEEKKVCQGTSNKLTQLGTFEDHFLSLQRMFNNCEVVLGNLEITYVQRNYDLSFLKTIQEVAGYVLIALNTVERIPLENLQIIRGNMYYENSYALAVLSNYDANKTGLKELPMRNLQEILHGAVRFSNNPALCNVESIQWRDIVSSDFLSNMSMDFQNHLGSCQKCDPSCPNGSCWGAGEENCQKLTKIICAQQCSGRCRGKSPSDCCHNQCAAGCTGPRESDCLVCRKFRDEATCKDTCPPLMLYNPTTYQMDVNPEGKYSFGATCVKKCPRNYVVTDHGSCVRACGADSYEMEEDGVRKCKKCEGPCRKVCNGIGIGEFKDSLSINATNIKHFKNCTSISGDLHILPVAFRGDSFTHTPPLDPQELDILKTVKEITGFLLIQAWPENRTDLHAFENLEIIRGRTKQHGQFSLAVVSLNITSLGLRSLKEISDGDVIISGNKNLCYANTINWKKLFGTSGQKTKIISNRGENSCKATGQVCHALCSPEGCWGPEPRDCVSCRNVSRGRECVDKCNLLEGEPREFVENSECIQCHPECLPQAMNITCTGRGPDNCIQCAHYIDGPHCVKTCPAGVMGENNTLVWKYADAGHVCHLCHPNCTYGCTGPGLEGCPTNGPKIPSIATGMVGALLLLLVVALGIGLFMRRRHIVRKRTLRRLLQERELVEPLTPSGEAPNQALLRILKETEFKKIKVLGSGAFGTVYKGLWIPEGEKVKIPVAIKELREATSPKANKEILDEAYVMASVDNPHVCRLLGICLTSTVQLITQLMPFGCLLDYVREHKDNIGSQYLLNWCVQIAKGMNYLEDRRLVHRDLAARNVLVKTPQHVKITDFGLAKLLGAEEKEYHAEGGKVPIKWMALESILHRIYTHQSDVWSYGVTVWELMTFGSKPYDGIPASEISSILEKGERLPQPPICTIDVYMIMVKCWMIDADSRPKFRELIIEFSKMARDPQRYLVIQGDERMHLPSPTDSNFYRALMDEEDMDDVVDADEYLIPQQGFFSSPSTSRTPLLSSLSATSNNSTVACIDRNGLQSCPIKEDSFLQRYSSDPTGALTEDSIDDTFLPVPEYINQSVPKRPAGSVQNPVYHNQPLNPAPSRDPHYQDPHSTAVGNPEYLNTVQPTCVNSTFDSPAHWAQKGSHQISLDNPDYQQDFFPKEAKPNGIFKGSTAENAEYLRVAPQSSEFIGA

Row | Compound | IC50 ([1]; IC50 WT (nM), 100 μM ATP) [nM] | IC50 [1, 6] [nM] | IC50 [2, 7] [nM] | IC50 [2, 8] [nM] | IC50 [3, 9] [nM] | IC50 [3, 10] [nM] | IC50 [4, 11] [nM] | IC50 [4, 12] [nM] | IC50 [5, 13] [nM] | IC50 [5, 14] [nM]
1 | CS(=O)(=O)N1CCC(C#Cc2cnc(Nc3ccnc(-c4cnn(S(=O)(=O)C5CC5)c4)n3)cc2N[C@H]2CC[C@@H](CO)CC2)CC1 [Example 387, ((1s,4s)-4-((2-((2-(1-(Cyclopropylsulfonyl)-1H-pyrazol-4-yl)pyrimidin-4-yl)amino)-5-((1-(methylsulfonyl)piperidin-4-yl)ethynyl)pyridin-4-yl)amino)cyclohexyl)methanol] | > 10000 | 9.5 | 36.7 | 2.7 | 0.7 | 0.2 | 4.4 | 1.2 | 0.6 | 0.3
2 | CS(=O)(=O)N1CCC(C#Cc2cnc(Nc3ccnc(-c4cnn(S(=O)(=O)C5CC5)c4)n3)cc2NC[C@H]2CC[C@H](CO)CC2)CC1 [Example 388, ((1r,4r)-4-(((2-((2-(1-(Cyclopropylsulfonyl)-1H-pyrazol-4-yl)pyrimidin-4-yl)amino)-5-((1-(methylsulfonyl)piperidin-4-yl)ethynyl)pyridin-4-yl)amino)methyl)cyclohexyl)methanol] | > 10000 | 312 | 624 | 38.6 | 19.3 | 2 | 127 | 33.3 | 6.6 | 2.7
3 | CC1(CO)CCN(c2cc(Nc3ccnc(-c4cnn(S(=O)(=O)C5CC5)c4)n3)ncc2C#CC2CCN(S(C)(=O)=O)CC2)CC1 [Example 389, (1-(2-((2-(1-(Cyclopropylsulfonyl)-1H-pyrazol-4-yl)pyrimidin-4-yl)amino)-5-((1-(methylsulfonyl)piperidin-4-yl)ethynyl)pyridin-4-yl)-4-methylpiperidin-4-yl)methanol] | 5200 | 4.6 | 14.5 | 1.6 | 0.7 | 0.1 | 2.1 | 0.4 | 0.5 | 0.3
4 | O=S(=O)(C1CC1)N1CCC(C#Cc2cnc(Nc3ccnc(-c4cnn(S(=O)(=O)C5CC5)c4)n3)cc2N[C@H]2CC[C@@H](CO)CC2)CC1 [Example 390, ((1s,4s)-4-((2-((2-(1-(Cyclopropylsulfonyl)-1H-pyrazol-4-yl)pyrimidin-4-yl)amino)-5-((1-(cyclopropylsulfonyl)piperidin-4-yl)ethynyl)pyridin-4-yl)amino)cyclohexyl)methanol] | > 10000 | 47.7 | 192 | 30.1 | 8.3 | 1.1 | 11.6 | 7.3 | 5.3 | 2.5
5 | O=S(=O)(C1CC1)N1CCC(C#Cc2cnc(Nc3ccnc(-c4cnn(S(=O)(=O)C5CC5)c4)n3)cc2N[C@H]2CC[C@@H](O)CC2)CC1 [Example 391, (1s,4s)-4-((2-((2-(1-(Cyclopropylsulfonyl)-1H-pyrazol-4-yl)pyrimidin-4-yl)amino)-5-((1-(cyclopropylsulfonyl)piperidin-4-yl)ethynyl)pyridin-4-yl)amino)cyclohexan-1-ol] | > 10000 | 25.6 | 63.4 | 19.2 | 2.1 | 0.4 | 5.1 | 3 | 1.3 | 0.6
6 | O=S(=O)(C1CC1)N1CCC(C#Cc2cnc(Nc3ccnc(-c4cnn(S(=O)(=O)C5CC5)c4)n3)cc2NC[C@H]2CC[C@H](CO)CC2)CC1 [Example 392, ((1r,4r)-4-(((2-((2-(1-(Cyclopropylsulfonyl)-1H-pyrazol-4-yl)pyrimidin-4-yl)amino)-5-((1-(cyclopropylsulfonyl)piperidin-4-yl)ethynyl)pyridin-4-yl)amino)methyl)cyclohexyl)methanol] | > 10000 |  | 4300 |  | 60.1 |  | 212 |  | 22 | 
7 | O=S(=O)(C1CC1)N1CCC(C#Cc2cnc(Nc3ccnc(-c4cnn(S(=O)(=O)C5CC5)c4)n3)cc2NC2CCC(CO)CC2)C1 (stereo not drawn) [Example 393, ((1s,4s)-4-((2-((2-(1-(Cyclopropylsulfonyl)-1H-pyrazol-4-yl)pyrimidin-4-yl)amino)-5-((1-(cyclopropylsulfonyl)pyrrolidin-3-yl)ethynyl)pyridin-4-yl)amino)cyclohexyl)methanol] | > 10000 | 21.3 | 50 | 3.4 | 1.2 | 0.4 | 7.9 | 7.3 | 0.6 | 0.5
8 | O=S(=O)(C1CC1)N1CCC(C#Cc2cnc(Nc3ccnc(-c4cnn(S(=O)(=O)C5CC5)c4)n3)cc2NC2CCC(O)CC2)C1 (stereo not drawn) [Example 394, (1s,4s)-4-((2-((2-(1-(Cyclopropylsulfonyl)-1H-pyrazol-4-yl)pyrimidin-4-yl)amino)-5-((1-(cyclopropylsulfonyl)pyrrolidin-3-yl)ethynyl)pyridin-4-yl)amino)cyclohexan-1-ol] | > 10000 | 15.7 | 52.5 | 4.3 | 1.5 | 0.2 | 12.3 | 7.5 | 0.6 | 0.5
9 | CC1(CO)CCN(c2cc(Nc3ccnc(-c4cnn(S(=O)(=O)C5CC5)c4)n3)ncc2C#CC2CCN(S(=O)(=O)C3CC3)C2)CC1 (stereo not drawn) [Example 395, (1-(2-((2-(1-(Cyclopropylsulfonyl)-1H-pyrazol-4-yl)pyrimidin-4-yl)amino)-5-((1-(cyclopropylsulfonyl)pyrrolidin-3-yl)ethynyl)pyridin-4-yl)-4-methylpiperidin-4-yl)methanol] | 9220 | 16.9 | 51.2 | 2.7 | 1.3 | 0.3 | 8.3 | 6.6 | 0.7 | 0.6
10 | CN(C)CCC1CCCN(c2cc(Nc3ccnc(-c4cnn(S(=O)(=O)C5CC5)c4)n3)ncc2C#Cc2cnn(C)c2)C1 (stereo not drawn) [Example 396, 2-(1-(Cyclopropylsulfonyl)-1H-pyrazol-4-yl)-N-(4-(3-(2-(dimethylamino)ethyl)piperidin-1-yl)-5-((1-methyl-1H-pyrazol-4-yl)ethynyl)pyridin-2-yl)pyrimidin-4-amine] | 3390 | 6.5 | 12.2 | 0.6 | 0.7 | 0.1 | 1 | 0.5 | 0.5 | 1
11 | CS(=O)(=O)N1CCC(C#Cc2cnc(Nc3ccnc(-c4cnn(S(=O)(=O)C5CC5)c4)n3)cc2NC2CCC(CO)CC2)C1 (stereo not drawn) [Example 397, ((1s,4s)-4-((2-((2-(1-(Cyclopropylsulfonyl)-1H-pyrazol-4-yl)pyrimidin-4-yl)amino)-5-((1-(methylsulfonyl)pyrrolidin-3-yl)ethynyl)pyridin-4-yl)amino)cyclohexyl)methanol] | > 10000 | 16.9 | 31.3 | 1.5 | 1.3 | 0.5 | 1.5 | 0.7 | 0.9 | 1.5
12 | CS(=O)(=O)N1CCC(C#Cc2cnc(Nc3ccnc(-c4cnn(S(=O)(=O)C5CC5)c4)n3)cc2NCC2CCC(O)CC2)C1 (stereo not drawn) [Example 398, (1 r,4r)-4-(((2-((2-(1-(Cyclopropylsulfonyl)-1H-pyrazol-4-yl)pyrimidin-4-yl)amino)-5-((1-(methylsulfonyl)pyrrolidin-3-yl)ethynyl)pyridin-4-yl)amino)methyl)cyclohexan-1-ol] | > 10000 | 294 | 971 | 17.8 | 29.3 | 24.7 | 44.3 | 16.6 | 14.9 | 26.7
13 | CS(=O)(=O)N1CCC(C#Cc2cnc(Nc3ccnc(-c4cnn(S(=O)(=O)C5CC5)c4)n3)cc2NC2CCC(O)CC2)C1 (stereo not drawn) [Example 399, (1s,4s)-4-((2-((2-(1-(Cyclopropylsulfonyl)-1H-pyrazol-4-yl)pyrimidin-4-yl)amino)-5-((1-(methylsulfonyl)pyrrolidin-3-yl)ethynyl)pyridin-4-yl)amino)cyclohexan-1-ol] | > 10000 | 10.2 | 28.2 | 1.6 | 1.2 | 0.8 | 1.4 | 0.6 | 5.7 | 1.3
14 | CS(=O)(=O)N1CCC(C#Cc2cnc(Nc3ccnc(-c4cnn(S(=O)(=O)C5CC5)c4)n3)cc2NCC2CCC(CO)CC2)C1 (stereo not drawn) [Example 400, ((1r,4r)-4-(((2-((2-(1-(Cyclopropylsulfonyl)-1H-pyrazol-4-yl)pyrimidin-4-yl)amino)-5-((1-(methylsulfonyl)pyrrolidin-3-yl)ethynyl)pyridin-4-yl)amino)methyl)cyclohexyl)methanol] | > 10000 | 310 | 1570 | 17.9 | 22.5 | 26.1 | 35.6 | 12.8 | 19.3 | 34
